# Legend:
# [1] = target: 5-hydroxytryptamine receptor 2B (Homo sapiens, UniProt P41595); assay: Displacement of [3H]LSD from human recombinant 5HT2B receptor stably expressed in HEK cells; assay type: cell-based, HEK293
# [2] = target: T1, 5-hydroxytryptamine receptor 2C (Homo sapiens, UniProt P28335); assay: Displacement of [3H]mesulergine from human recombinant 5HT2C receptor expressed in Flp-IN HEK cells; assay type: cell-based, HEK293
# T1 sequence (P28335 whole entry): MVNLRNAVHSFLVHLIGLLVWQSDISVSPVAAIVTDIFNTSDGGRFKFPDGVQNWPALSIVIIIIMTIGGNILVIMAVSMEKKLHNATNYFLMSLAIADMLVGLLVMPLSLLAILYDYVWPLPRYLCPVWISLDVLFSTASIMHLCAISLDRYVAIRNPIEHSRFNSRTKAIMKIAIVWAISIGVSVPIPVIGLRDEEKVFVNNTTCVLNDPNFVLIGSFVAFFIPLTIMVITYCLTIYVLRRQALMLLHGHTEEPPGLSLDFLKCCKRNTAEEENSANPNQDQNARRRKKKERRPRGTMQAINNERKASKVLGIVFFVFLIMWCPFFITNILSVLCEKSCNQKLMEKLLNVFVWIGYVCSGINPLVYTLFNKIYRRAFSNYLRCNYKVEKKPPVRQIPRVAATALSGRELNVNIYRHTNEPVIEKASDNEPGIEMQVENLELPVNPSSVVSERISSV
# [3] = target: 5-hydroxytryptamine receptor 2A (Rattus norvegicus, UniProt P14842); assay: Displacement of [3H]ketanserin from rat 5HT2A receptor stably expressed in 3T3 cells; assay type: cell-based
# [4] = target: 5-hydroxytryptamine receptor 7 (Homo sapiens, UniProt P34969); assay: Displacement of [3H]LSD from human recombinant 5HT7 receptor stably expressed in HEK cells; assay type: cell-based, HEK293
# [5] = target: T2, 5-hydroxytryptamine receptor 1A (Homo sapiens, UniProt P08908); assay: Displacement of [3H]way100635 from human recombinant 5HT1A receptor stably expressed in CHO cells; assay type: cell-based
# T2 sequence (P08908 whole entry): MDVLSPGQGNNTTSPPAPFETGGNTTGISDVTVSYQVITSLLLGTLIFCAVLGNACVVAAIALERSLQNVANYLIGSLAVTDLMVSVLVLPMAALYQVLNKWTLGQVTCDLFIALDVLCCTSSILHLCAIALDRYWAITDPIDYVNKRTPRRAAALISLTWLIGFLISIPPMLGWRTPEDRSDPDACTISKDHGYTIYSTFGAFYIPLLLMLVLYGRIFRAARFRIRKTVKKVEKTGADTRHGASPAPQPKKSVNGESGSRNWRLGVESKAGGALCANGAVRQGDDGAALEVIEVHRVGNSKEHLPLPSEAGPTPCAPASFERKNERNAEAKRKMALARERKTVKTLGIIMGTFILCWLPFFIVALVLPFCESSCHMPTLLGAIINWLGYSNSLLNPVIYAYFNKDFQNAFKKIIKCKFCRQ
# [6] = target: 5-hydroxytryptamine receptor 6 (Homo sapiens, UniProt P50406); assay: Displacement of [3H]LSD from human recombinant 5HT6 receptor stably expressed in HEK cells; assay type: cell-based, HEK293
# [7] = target: T3, 5-hydroxytryptamine receptor 3A (Homo sapiens, UniProt P46098); assay: Displacement of [3H]GR65630 from human recombinant 5HT3 receptor expressed in HEKT cells; assay type: cell-based
# T3 sequence (P46098 whole entry): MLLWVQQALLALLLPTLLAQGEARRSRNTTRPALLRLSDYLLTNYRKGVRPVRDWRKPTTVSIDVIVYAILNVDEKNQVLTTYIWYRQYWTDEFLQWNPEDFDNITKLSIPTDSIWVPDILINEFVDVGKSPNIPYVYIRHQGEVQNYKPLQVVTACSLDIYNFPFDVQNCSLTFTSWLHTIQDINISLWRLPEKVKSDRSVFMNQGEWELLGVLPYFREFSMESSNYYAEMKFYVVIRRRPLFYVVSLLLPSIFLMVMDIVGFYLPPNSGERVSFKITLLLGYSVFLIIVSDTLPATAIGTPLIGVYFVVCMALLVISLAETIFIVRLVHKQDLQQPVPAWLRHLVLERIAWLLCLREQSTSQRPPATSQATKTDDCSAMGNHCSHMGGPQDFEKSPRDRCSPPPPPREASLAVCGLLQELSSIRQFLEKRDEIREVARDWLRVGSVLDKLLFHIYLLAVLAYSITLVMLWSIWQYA
# [8] = target: 5-hydroxytryptamine receptor 5A (Homo sapiens, UniProt P47898); assay: Displacement of [3H]LSD from human recombinant 5HT5A receptor expressed in Flp-In CHO cells; assay type: cell-based
# [9] = target: 5-hydroxytryptamine receptor 1E (Homo sapiens, UniProt P28566); assay: Displacement of [3H]5-HT from human recombinant 5HT1E receptor stably expressed in HEK cells; assay type: cell-based, HEK293
# [10] = target: 5-hydroxytryptamine receptor 4 (Homo sapiens, UniProt Q13639); assay: Displacement of [3H]GR113808 from human recombinant 5HT4 receptor
# [11] = target: 5-hydroxytryptamine receptor 1B (Homo sapiens, UniProt P28222); assay: Displacement of [3H]5-CT from human recombinant 5HT1B receptor stably expressed in HEK cells; assay type: cell-based, HEK293
# [12] = target: 5-hydroxytryptamine receptor 1D (Homo sapiens, UniProt P28221); assay: Displacement of [3H]5-CT from human recombinant 5HT1D receptor expressed in HEKT cells; assay type: cell-based
# Sequence of 5-hydroxytryptamine receptor 1D (P28221 whole entry): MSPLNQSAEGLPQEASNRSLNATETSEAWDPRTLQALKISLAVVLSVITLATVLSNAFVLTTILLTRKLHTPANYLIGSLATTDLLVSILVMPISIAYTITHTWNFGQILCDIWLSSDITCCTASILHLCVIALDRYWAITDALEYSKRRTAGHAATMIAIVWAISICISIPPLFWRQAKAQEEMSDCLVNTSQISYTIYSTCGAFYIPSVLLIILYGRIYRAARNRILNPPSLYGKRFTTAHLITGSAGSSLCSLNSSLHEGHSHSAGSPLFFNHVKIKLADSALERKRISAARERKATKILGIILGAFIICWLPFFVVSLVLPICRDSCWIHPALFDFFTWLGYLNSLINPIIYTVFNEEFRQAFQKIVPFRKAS
# Sequence of 5-hydroxytryptamine receptor 2B (P41595 whole entry): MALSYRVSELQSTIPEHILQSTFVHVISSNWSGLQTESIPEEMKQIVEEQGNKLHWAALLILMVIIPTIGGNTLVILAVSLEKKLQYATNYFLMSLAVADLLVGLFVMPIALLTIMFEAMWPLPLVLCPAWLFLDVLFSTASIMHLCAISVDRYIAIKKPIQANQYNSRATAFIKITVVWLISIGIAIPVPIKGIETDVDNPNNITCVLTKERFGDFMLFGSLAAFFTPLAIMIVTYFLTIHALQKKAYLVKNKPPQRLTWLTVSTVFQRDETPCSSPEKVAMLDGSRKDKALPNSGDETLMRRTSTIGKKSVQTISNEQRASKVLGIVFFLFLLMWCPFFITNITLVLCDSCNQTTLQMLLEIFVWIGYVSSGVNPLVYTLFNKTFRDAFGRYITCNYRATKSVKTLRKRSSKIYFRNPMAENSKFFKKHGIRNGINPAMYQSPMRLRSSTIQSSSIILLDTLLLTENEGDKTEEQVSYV
# Sequence of 5-hydroxytryptamine receptor 7 (P34969 whole entry): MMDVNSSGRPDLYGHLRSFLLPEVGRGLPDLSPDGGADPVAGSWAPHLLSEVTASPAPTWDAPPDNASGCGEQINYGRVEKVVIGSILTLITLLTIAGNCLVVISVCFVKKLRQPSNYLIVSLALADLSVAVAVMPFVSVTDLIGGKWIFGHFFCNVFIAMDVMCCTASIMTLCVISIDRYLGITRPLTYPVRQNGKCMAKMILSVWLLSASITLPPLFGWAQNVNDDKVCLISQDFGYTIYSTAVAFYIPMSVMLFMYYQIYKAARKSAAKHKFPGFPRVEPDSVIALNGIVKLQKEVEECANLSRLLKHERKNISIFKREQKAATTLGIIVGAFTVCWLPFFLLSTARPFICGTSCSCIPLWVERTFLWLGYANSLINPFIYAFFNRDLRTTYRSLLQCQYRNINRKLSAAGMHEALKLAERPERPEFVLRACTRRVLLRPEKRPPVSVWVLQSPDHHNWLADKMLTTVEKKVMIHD
# Sequence of 5-hydroxytryptamine receptor 6 (P50406 whole entry): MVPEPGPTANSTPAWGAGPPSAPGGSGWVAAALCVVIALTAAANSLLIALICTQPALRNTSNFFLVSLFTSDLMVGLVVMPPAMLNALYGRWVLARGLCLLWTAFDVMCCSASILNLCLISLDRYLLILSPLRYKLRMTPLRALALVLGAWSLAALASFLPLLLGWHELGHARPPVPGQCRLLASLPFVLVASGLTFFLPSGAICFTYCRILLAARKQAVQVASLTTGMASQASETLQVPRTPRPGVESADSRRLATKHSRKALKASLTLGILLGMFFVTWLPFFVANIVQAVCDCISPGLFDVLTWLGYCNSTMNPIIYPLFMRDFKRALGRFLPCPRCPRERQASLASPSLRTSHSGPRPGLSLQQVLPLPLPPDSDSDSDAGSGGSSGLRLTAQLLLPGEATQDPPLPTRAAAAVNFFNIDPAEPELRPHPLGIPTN
# Sequence of 5-hydroxytryptamine receptor 1E (P28566 whole entry): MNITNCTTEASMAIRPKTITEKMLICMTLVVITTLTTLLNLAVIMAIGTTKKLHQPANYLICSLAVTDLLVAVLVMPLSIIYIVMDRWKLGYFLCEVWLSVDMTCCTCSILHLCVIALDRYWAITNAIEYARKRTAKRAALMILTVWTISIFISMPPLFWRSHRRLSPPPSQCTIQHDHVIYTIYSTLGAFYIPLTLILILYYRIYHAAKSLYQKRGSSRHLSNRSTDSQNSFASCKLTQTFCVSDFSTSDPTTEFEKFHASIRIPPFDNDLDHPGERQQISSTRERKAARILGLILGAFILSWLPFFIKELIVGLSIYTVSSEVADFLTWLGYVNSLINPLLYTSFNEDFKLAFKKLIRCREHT
# Sequence of 5-hydroxytryptamine receptor 2A (P14842 whole entry): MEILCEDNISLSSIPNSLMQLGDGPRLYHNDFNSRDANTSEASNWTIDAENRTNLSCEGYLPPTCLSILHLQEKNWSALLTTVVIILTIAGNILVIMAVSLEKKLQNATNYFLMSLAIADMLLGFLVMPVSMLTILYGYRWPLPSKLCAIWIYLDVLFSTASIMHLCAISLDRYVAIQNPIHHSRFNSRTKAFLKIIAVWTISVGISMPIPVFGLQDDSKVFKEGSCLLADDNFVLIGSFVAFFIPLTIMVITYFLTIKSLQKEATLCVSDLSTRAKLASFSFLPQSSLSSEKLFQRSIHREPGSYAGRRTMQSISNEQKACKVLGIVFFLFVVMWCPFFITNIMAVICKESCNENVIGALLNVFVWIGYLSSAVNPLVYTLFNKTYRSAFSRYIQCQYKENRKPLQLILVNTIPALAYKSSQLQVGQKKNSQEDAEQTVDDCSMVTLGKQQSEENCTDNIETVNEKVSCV
# Sequence of 5-hydroxytryptamine receptor 4 (Q13639 whole entry): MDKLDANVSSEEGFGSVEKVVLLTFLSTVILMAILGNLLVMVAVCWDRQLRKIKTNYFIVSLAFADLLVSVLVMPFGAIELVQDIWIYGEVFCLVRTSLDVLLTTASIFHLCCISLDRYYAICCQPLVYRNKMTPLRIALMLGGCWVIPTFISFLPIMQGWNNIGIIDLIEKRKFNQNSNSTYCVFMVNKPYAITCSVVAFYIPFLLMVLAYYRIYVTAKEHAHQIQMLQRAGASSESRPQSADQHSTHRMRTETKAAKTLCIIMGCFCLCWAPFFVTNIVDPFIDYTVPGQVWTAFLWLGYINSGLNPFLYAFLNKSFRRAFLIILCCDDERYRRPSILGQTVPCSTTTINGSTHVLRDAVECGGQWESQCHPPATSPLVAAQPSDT
# Sequence of 5-hydroxytryptamine receptor 5A (P47898 whole entry): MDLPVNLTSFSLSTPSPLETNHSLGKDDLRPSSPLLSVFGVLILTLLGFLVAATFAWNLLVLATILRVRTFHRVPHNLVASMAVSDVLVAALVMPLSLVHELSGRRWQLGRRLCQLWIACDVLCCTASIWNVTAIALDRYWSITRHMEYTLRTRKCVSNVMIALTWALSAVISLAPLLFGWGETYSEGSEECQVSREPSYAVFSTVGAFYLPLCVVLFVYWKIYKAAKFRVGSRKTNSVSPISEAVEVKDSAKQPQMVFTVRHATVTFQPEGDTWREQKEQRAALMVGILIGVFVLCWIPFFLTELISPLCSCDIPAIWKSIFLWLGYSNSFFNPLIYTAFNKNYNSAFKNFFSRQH
# Sequence of 5-hydroxytryptamine receptor 1B (P28222 whole entry): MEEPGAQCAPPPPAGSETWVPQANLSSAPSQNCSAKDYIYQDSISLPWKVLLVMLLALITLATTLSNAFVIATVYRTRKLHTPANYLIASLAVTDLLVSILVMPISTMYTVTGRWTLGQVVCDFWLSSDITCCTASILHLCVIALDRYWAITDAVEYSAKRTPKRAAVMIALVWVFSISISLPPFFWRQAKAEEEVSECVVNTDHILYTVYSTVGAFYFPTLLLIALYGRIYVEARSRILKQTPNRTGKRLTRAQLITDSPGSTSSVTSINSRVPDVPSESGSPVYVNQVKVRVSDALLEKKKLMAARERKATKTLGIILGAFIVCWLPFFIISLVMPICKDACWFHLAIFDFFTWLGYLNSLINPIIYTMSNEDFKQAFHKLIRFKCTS
Ki [1],Ki [2],Ki [3],Ki [5],Ki [8],SMILES,other results
520 nM,1340 nM,> 10000 nM,,,C/N=C1/N/C(=C/c2c[nH]c3ccc(Br)cc23)C(=O)N1C,Ki [4]: 3350 nM
489 nM,2280 nM,,,,C/N=C1\NC(=O)/C(=C\c2c[nH]c3cc(Br)ccc23)N1C,
4450 nM,10000 nM,,> 10000 nM,,CN1C(=N)N(C)/C(=C/c2c[nH]c3ccccc23)C1=O [APLYSINOPSIN],Ki [6]: 8770 nM; Ki [7]: 3030 nM
457 nM,841 nM,2150 nM,,112 nM,N=C1NC(=O)/C(=C\c2c[nH]c3c(Br)cccc23)N1,Ki [9]: > 10000 nM; Ki [6]: 1400 nM
232 nM,349 nM,1170 nM,,101 nM,N=C1NC(=O)/C(=C\c2c[nH]c3ccccc23)N1,
780 nM,885 nM,,,,CSC1=NC(=O)/C(=C/c2c[nH]c3cccc(Br)c23)N1,Ki [10]: 1060 nM
93 nM,426 nM,676 nM,,,C/N=C1\NC(=O)/C(=C/c2c[nH]c3ccc(Br)cc23)N1,Ki [6]: 860 nM; Ki [10]: 226 nM
154 nM,980 nM,,,,C/N=C1\NC(=O)/C(=C/c2c[nH]c3cc(Br)ccc23)N1,Ki [10]: 1160 nM
964 nM,4780 nM,,,,CN1C(=N)NC(=O)/C1=C\c1c[nH]c2ccccc12,
1620 nM,2430 nM,,2510 nM,9120 nM,C/N=C1\N(C)C(=O)/C(=C\c2c[nH]c3ccc(Br)cc23)N1C,Ki [7]: 2620 nM; Ki [4]: 5370 nM
839 nM,10000 nM,,,,C/N=C1/N/C(=C/c2c[nH]c3c(Br)cccc23)C(=O)N1C,Ki [9]: > 10000 nM
2710 nM,,,,,O=C1NC(=S)N/C1=C\c1c[nH]c2cc(Br)ccc12,
5060 nM,10000 nM,,,,C/N=C1/N/C(=C/c2c[nH]c3ccccc23)C(=O)N1C,Ki [9]: > 10000 nM
661 nM,2210 nM,7970 nM,> 10000 nM,1420 nM,C/N=C1\NC(=O)/C(=C\c2c[nH]c3c(Br)cccc23)N1C,Ki [9]: > 10000 nM; Ki [6]: 2310 nM
965 nM,6470 nM,,> 10000 nM,6910 nM,C/N=C1\N(C)C(=O)/C(=C\c2c[nH]c3c(Br)cccc23)N1C,Ki [11]: > 10000 nM; Ki [6]: 7300 nM; Ki [12]: 8870 nM
716 nM,2350 nM,,,,C/N=C1\NC(=O)/C(=C\c2c[nH]c3ccccc23)N1C [ISOPLYSIN A],
897 nM,1860 nM,> 10000 nM,6930 nM,5080 nM,C/N=C1\N(C)C(=O)/C(=C\c2c[nH]c3cccc(Br)c23)N1C,Ki [9]: > 10000 nM; Ki [6]: 7520 nM; Ki [7]: 591 nM; Ki [12]: 2550 nM
784 nM,2010 nM,1410 nM,,,CN1C(=N)NC(=O)/C1=C\c1c[nH]c2cccc(Br)c12,Ki [4]: 799 nM
190 nM,1920 nM,4160 nM,> 10000 nM,5360 nM,CN1C(=N)N/C(=C/c2c[nH]c3cc(Br)ccc23)C1=O,
353 nM,678 nM,3590 nM,,3320 nM,C/N=C1\NC(=O)/C(=C/c2c[nH]c3c(Br)cccc23)N1,Ki [10]: 603 nM
1350 nM,2090 nM,,,,CSC1=NC(=O)/C(=C/c2c[nH]c3ccc(Br)cc23)N1,Ki [10]: 3800 nM
94 nM,1270 nM,279 nM,7360 nM,2330 nM,CN1C(=N)N/C(=C/c2c[nH]c3ccc(Br)cc23)C1=O,Ki [4]: 1220 nM

Ki [1],Ki [2],Ki [3],Ki [5],Ki [8],SMILES,other results
593 nM,10000 nM,,7270 nM,1550 nM,CN1C(=N)N/C(=C/c2c[nH]c3c(Br)cccc23)C1=O,Ki [9]: > 10000 nM
1250 nM,1260 nM,,527 nM,6720 nM,CN1C(=N)N(C)/C(=C/c2c[nH]c3ccc(Br)cc23)C1=O,Ki [7]: 1000 nM
1380 nM,3880 nM,,,,CN1C(=N)NC(=O)/C1=C\c1c[nH]c2cc(Br)ccc12,
2670 nM,1700 nM,,> 10000 nM,9620 nM,CN1C(=N)N(C)/C(=C/c2c[nH]c3cc(Br)ccc23)C1=O,
774 nM,2340 nM,,,,C/N=C1/N/C(=C/c2c[nH]c3cccc(Br)c23)C(=O)N1C,Ki [11]: > 10000 nM; Ki [12]: > 10000 nM
2470 nM,1240 nM,,> 10000 nM,4680 nM,C/N=C1\N(C)C(=O)/C(=C\c2c[nH]c3cc(Br)ccc23)N1C,
4550 nM,10000 nM,> 10000 nM,,,C/N=C1\N(C)C(=O)/C(=C\c2c[nH]c3ccccc23)N1C [METHYLAPLYSINOPSIN],Ki [9]: > 10000 nM; Ki [6]: 1720 nM; Ki [7]: 1510 nM
1420 nM,4130 nM,> 10000 nM,,1320 nM,CN1C(=N)NC(=O)/C1=C\c1c[nH]c2c(Br)cccc12,Ki [9]: > 10000 nM
369 nM,1870 nM,,,,O=C1NC(=S)N/C1=C\c1c[nH]c2cccc(Br)c12,Ki [10]: 2360 nM
287 nM,970 nM,,,,C/N=C1\NC(=O)/C(=C/c2c[nH]c3ccccc23)N1,Ki [10]: 928 nM
993 nM,,,,,CSC1=NC(=O)/C(=C/c2c[nH]c3c(Br)cccc23)N1,Ki [10]: 2350 nM
228 nM,1700 nM,8670 nM,3440 nM,1280 nM,CN1C(=N)N/C(=C/c2c[nH]c3cccc(Br)c23)C1=O,
269 nM,201 nM,3130 nM,,184 nM,N=C1NC(=O)/C(=C\c2c[nH]c3cc(Br)ccc23)N1,Ki [9]: > 10000 nM
1270 nM,10000 nM,,,,C/N=C1/N/C(=C/c2c[nH]c3cc(Br)ccc23)C(=O)N1C,Ki [9]: > 10000 nM
1140 nM,4370 nM,,,,CSC1=NC(=O)/C(=C/c2c[nH]c3cc(Br)ccc23)N1,Ki [10]: 5310 nM
852 nM,2450 nM,,3210 nM,,CN1C(=N)NC(=O)/C1=C\c1c[nH]c2ccc(Br)cc12,Ki [9]: > 10000 nM
447 nM,604 nM,4620 nM,,123 nM,N=C1NC(=O)/C(=C\c2c[nH]c3cccc(Br)c23)N1,
1280 nM,10000 nM,,,,CN1C(=N)N/C(=C/c2c[nH]c3ccccc23)C1=O,Ki [9]: > 10000 nM
1680 nM,4350 nM,,2750 nM,,O=C1NC(=S)N/C1=C\c1c[nH]c2ccc(Br)cc12,
,,,,,O=C1NC(=S)N/C1=C\c1c[nH]c2c(Br)cccc12,Ki [10]: 2210 nM
50 nM,80 nM,470 nM,,3370 nM,C/N=C1\NC(=O)/C(=C/c2c[nH]c3cccc(Br)c23)N1,Ki [6]: 3730 nM; Ki [10]: 472 nM
883 nM,1080 nM,,2620 nM,,C/N=C1\NC(=O)/C(=C\c2c[nH]c3ccc(Br)cc23)N1C,Ki [7]: 6180 nM; Ki [4]: 4110 nM

# From ChEMBL document CHEMBL2440075, “In vitro structure-activity relationships of aplysinopsin analogs and their in vivo evaluation in the chick anxiety-depression model” (Bioorg Med Chem, 2013)
